# Patent US10836764B2, “5-HT2C receptor agonists and compositions and methods of use” (Arena Pharmaceuticals, Inc., priority 2016, dated 2020)
# Read-outs that look alike come from different tables or passages of the source.
# What was measured:
# [1] = molecular target: T1, 5-HT2C receptor (Homo sapiens (Human), UniProt P28335); assay: DOI radioligand binding assay, 5-HT2C
# Method: (§1) For the compounds of Table A, the following procedure was used. HEK293 cells stably expressing recombinant 5-HT2 receptors were harvested, suspended in ice-cold phosphate buffered saline, pH 7.4 (PBS), and then centrifuged at 48,000 g for 20 min at 4° C. The resulting cell pellet was then re-suspended in wash buffer containing 20 mM HEPES, pH 7.4 and 0.1 mM EDTA, homogenized on ice using a Brinkman Polytron, and centrifuged (48,000 g for 20 min at 4° C.). The pellet was then resuspended in 20 mM HEPES, pH 7.4, homogenized on ice, and centrifuged (48,000 g for 20 min at 4° C.). Crude membrane pellets were stored at −80° C. until used for radioligand binding assays.
# (§2) For the compounds of Table A, the following procedure was used. […] Experiments comprised addition of 95 μL of assay buffer (20 mM HEPES, pH 7.4, 10 mM MgCl2), 50 μL of membranes, 50 μL of radioligand stock, and 5 μL of test compound diluted in assay buffer to 96-well microtiter plates, which were then incubated for 1 h at room temperature. Assay incubations were terminated by rapid filtration through PerkinElmer F/C filtration plates under reduced pressure using a 96-well Packard filtration apparatus, followed by washing three times with ice cold assay buffer. Plates were then dried at 45° C. for a minimum of 2 h. Finally, 25 μL of BetaScint™ scintillation cocktail was added to each well and the plates were counted in a Packard TopCount® scintillation counter. In each competition study, test compounds were dosed at ten concentrations with triplicate determinations at each test concentration.
# [2] = molecular target: T2, 5-HT2A receptor (Homo sapiens (Human), UniProt P28223); assay: DOI radioligand binding assay, 5-HT2A
# Method: as §1, §2
# [3] = molecular target: T1, 5-HT2C receptor; assay: IP accumulation assay, 5-HT2C; assay type: cell-based
# Method: (§3) HEK293 cells expressing recombinant 5-HT2 receptors were added to sterile poly-D-lysine-coated 96-well microtiter plates (35,000 cells/well) and labeled with 0.6 μCi/well of [^3H]inositol in myoinositol-free DMEM for 18 h. Unincorporated [^3H]inositol was removed by aspiration and replaced with fresh myoinositol-free DMEM supplemented with LiCl (10 mM final) and pargyline (10 μM final). Serially diluted test compounds were then added and incubation was conducted for 2 h at 37° C. (5-HT2B, and 5-HT2A) and RT (5-HT2C). Incubations were then terminated by lysing cells with the addition of ice-cold 0.1 M formic acid followed by freezing at −80° C. After thawing, total [^3H]inositol phosphates were resolved from [^3H]inositol using AG1-X8 ion exchange resin (Bio-Rad) and [^3H]inositol phosphates were measured by scintillation counting using a Perkin Elmer TopCount® scintillation counter. All EC50 determinations were performed using 10 different concentrations and triplicate determinations were made at each test concentration.
# [4] = molecular target: T2, 5-HT2A receptor; assay: IP accumulation assay, 5-HT2A; assay type: cell-based
# Method: as §3
# [5] = molecular target: T3, 5-HT2B receptor (Homo sapiens (Human), UniProt P41595); assay: DOI radioligand binding assay, 5-HT2B; conditions: [125I]DOI competition, HEK293 cell membranes
# Method: as §1, §2
# [6] = molecular target: T3, 5-HT2B receptor; assay: IP accumulation assay, 5-HT2B; assay type: cell-based
# Method: as §3
# [7] = [125I]DOI competition, HEK293 cell membranes, read-out: DOI Binding 5HT2A
# [8] = IP accumulation, HEK293 cells, 2 h at RT, read-out: EC50 5HT2C
# [9] = IP accumulation, HEK293 cells, 2 h at 37° C., read-out: EC50 5HT2A
# T3 sequence (P41595 whole entry): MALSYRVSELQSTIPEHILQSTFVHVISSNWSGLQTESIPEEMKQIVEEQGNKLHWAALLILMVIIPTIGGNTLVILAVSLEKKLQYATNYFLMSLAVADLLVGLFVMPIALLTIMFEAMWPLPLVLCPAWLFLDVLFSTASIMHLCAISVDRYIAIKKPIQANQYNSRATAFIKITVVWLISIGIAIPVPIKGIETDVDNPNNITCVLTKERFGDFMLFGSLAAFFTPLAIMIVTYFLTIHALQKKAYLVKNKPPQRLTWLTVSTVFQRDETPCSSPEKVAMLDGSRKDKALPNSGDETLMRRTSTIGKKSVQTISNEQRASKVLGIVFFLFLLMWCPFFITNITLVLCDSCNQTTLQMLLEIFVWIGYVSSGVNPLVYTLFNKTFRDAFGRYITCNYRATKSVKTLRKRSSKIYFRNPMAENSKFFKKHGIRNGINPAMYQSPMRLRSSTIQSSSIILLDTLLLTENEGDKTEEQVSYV
# T1 sequence (P28335 33-458): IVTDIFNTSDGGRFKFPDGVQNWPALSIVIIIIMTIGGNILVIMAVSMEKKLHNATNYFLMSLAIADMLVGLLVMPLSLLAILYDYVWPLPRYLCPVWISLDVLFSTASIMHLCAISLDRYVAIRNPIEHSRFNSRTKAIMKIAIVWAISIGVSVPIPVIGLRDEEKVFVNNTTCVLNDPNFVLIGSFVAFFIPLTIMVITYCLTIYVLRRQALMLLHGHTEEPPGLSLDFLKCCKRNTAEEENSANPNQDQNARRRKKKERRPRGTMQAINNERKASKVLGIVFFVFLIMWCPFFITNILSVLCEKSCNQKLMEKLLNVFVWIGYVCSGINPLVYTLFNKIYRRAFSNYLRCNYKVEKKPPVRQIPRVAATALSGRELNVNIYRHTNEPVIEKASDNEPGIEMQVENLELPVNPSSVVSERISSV
# T2 sequence (P28223 whole entry): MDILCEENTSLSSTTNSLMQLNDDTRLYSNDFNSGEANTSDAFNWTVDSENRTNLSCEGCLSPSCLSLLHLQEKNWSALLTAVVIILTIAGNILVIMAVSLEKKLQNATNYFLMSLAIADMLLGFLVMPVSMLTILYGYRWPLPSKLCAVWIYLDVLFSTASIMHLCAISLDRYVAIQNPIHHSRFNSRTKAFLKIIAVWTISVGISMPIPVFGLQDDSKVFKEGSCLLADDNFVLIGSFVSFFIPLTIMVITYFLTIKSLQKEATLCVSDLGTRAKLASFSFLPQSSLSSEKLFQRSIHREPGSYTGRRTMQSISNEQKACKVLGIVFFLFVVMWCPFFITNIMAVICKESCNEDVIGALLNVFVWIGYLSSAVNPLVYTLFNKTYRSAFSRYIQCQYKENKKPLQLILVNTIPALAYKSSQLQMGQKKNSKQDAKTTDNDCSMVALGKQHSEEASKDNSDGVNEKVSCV
compound,measurement,setting,value
"c1ccc(Cc2ccnc3c2CC[C@@H]2CNCCN32)cc1 [Compound 106, (R)-4-benzyl-6,6a,7,8,9,10-hexahydro-5H-pyrazino[1,2-a][1,8]naphthyridine]",Ki,[1],0.277 nM
same,Ki,[2]; [7],1.19 nM
same,EC50,[3]; [8],0.116 nM
same,EC50,[4]; [9],53.2 nM
"COCCc1ccnc2c1CC[C@@H]1CNCCN21 [Compound 107, (R)-4-(2-methoxyethyl)-6,6a,7,8,9,10-hexahydro-5H-pyrazino[1,2-a][1,8]naphthyridine]",Ki,[5],177 nM
same,Ki,[2]; [7],99.5 nM
"CCCCCc1ccnc2c1CC[C@@H]1CNCCN21 [Compound 108, (R)-4-pentyl-6,6a,7,8,9,10-hexahydro-5H-pyrazino[1,2-a][1,8]naphthyridine]",Ki,[1],0.401 nM
same,Ki,[2]; [7],2.3 nM
"CCc1ccnc2c1CC[C@@H]1CNCCN21 [Compound 110, (R)-4-ethyl-6,6a,7,8,9,10-hexahydro-5H-pyrazino[1,2-a][1,8]naphthyridine]",Ki,[1],0.562 nM
same,Ki,[2]; [7],16.1 nM
"CC(C)c1ccnc2c1CC[C@@H]1CNCCN21 [Compound 111, (R)-4-isopropyl-6,6a,7,8,9,10-hexahydro-5H-pyrazino[1,2-a][1,8]naphthyridine]",Ki,[1],0.874 nM
"CCCCc1ccnc2c1CC[C@@H]1CNCCN21 [Compound 112, (R)-4-butyl-6,6a,7,8,9,10-hexahydro-5H-pyrazino[1,2-a][1,8]naphthyridine]",Ki,[1],0.5 nM
same,Ki,[2]; [7],10.6 nM
"CCCc1ccnc2c1CC[C@@H]1CNCCN21 [Compound 113, (R)-4-propyl-6,6a,7,8,9,10-hexahydro-5H-pyrazino[1,2-a][1,8]naphthyridine]",Ki,[1],0.162 nM
same,Ki,[2]; [7],6.85 nM
same,EC50,[3],0.0656 nM
"CC(C)Cc1ccnc2c1CC[C@@H]1CNCCN21 [Compound 114, (R)-4-isobutyl-6,6a,7,8,9,10-hexahydro-5H-pyrazino[1,2-a][1,8]naphthyridine]",Ki,[1],0.587 nM
same,Ki,[5],33 nM
same,EC50,[3],0.424 nM
same,EC50,[6],351 nM
"Fc1cccc(Cc2ccnc3c2CC[C@@H]2CNCCN32)c1 [Compound 115, (R)-4-(3-fluorobenzyl)-6,6a,7,8,9,10-hexahydro-5H-pyrazino[1,2-a][1,8]naphthyridine]",Ki,[1],0.195 nM
same,Ki,[2],0.506 nM
same,EC50,[3]; [8],0.19 nM
same,EC50,[4]; [9],37.2 nM
"Fc1ccccc1Cc1ccnc2c1CC[C@@H]1CNCCN21 [Compound 116, (R)-4-(2-fluorobenzyl)-6,6a,7,8,9,10-hexahydro-5H-pyrazino[1,2-a][1,8]naphthyridine]",Ki,[1],0.304 nM
same,Ki,[2]; [7],2.65 nM
same,EC50,[3],0.314 nM
same,EC50,[4],152 nM
"c1csc(-c2ccnc3c2CC[C@@H]2CNCCN32)c1 [Compound 126, (R)-4-(thiophen-2-yl)-6,6a,7,8,9,10-hexahydro-5H-pyrazino[1,2-a][1,8]naphthyridine]",Ki,[5],122 nM
same,Ki,[2]; [7],68.8 nM
"c1cc(CC2CCCCO2)c2c(n1)N1CCNC[C@H]1CC2 (stereo partly drawn) [Compound 132, (6aR)-4-((tetrahydro-2H-pyran-2-yl)methyl)-6,6a,7,8,9,10-hexahydro-5H-pyrazino[1,2-a][1,8]naphthyridine]",Ki,[5],1090 nM
same,Ki,[2]; [7],212 nM
"c1cc(COCC2CCOCC2)c2c(n1)N1CCNC[C@H]1CC2 [Compound 133, (R)-4-(((tetrahydro-2H-pyran-4-yl)methoxy)methyl)-6,6a,7,8,9,10-hexahydro-5H-pyrazino[1,2-a][1,8]naphthyridine]",Ki,[1]; read-out: DOI Binding 5HT2C,1250 nM
same,Ki,[5],844 nM
same,Ki,[2]; [7],1670 nM
"N#CCCc1ccnc2c1CC[C@@H]1CNCCN21 [Compound 142, (R)-3-(6,6a,7,8,9,10-hexahydro-5H-pyrazino[1,2-a][1,8]naphthyridin-4-yl)propanenitrile]",Ki,[5],665 nM
same,Ki,[2]; [7],840 nM
"C/C=C/Cc1ccnc2c1CC[C@@H]1CNCCN21 [Compound 144, (R,E)-4-(but-2-en-1-yl)-6,6a,7,8,9,10-hexahydro-5H-pyrazino[1,2-a][1,8]naphthyridine]",Ki,[1],0.548 nM
same,Ki,[2]; [7],5.01 nM
"CC(C)OCc1ccnc2c1CC[C@@H]1CNCCN21 [Compound 145, (R)-4-(isopropoxymethyl)-6,6a,7,8,9,10-hexahydro-5H-pyrazino[1,2-a][1,8]naphthyridine]",Ki,[5],209 nM
same,Ki,[2]; [7],222 nM
"Clc1ccc(-c2ccnc3c2CC[C@@H]2CNCCN32)nc1 [Compound 146, (R)-4-(5-chloropyridin-2-yl)-6,6a,7,8,9,10-hexahydro-5H-pyrazino[1,2-a][1,8]naphthyridine]",Ki,[1]; read-out: DOI Binding 5HT2C,3110 nM
same,Ki,[5],1020 nM
same,Ki,[2]; [7],5390 nM
"Brc1ccnc2c1CC[C@@H]1CNCCCN21 [Compound 156, (R)-4-bromo-5,6,6a,7,8,9,10,11-octahydro-[1,4]diazepino[1,2-a][1,8]naphthyridine]",Ki,[5],127 nM
same,Ki,[2]; [7],1390 nM
"FC(F)(F)CCc1ccnc2c1CC[C@@H]1CNCCCN21 [Compound 157, (R)-4-(3,3,3-trifluoropropyl)-5,6,6a,7,8,9,10,11-octahydro-[1,4]diazepino[1,2-a][1,8]naphthyridine]",Ki,[5],721 nM
same,Ki,[2]; [7],1140 nM
"CSc1nc(Cl)c2c(n1)N1CCCNC[C@H]1CC2 [Compound 159, (R)-4-chloro-2-(methylthio)-5,6,6a,7,8,9,10,11-octahydropyrimido[5′,4′:5,6]pyrido[1,2-a][1,4]diazepine]",Ki,[1]; read-out: DOI Binding 5HT2C,1600 nM
same,Ki,[5],272 nM
same,Ki,[2]; [7],12300 nM
"Clc1ncnc2c1CC[C@@H]1CNCCCN21 [Compound 160, (R)-4-chloro-5,6,6a,7,8,9,10,11-octahydropyrimido[5′,4′:5,6]pyrido[1,2-a][1,4]diazepine]",Ki,[1]; read-out: DOI Binding 5HT2C,5560 nM
same,Ki,[5],1830 nM
same,Ki,[2]; [7],100000 nM
"CCc1c(CCC#N)cnc2c1CC[C@@H]1CNCCN21 [Compound 162, (R)-3-(4-ethyl-6,6a,7,8,9,10-hexahydro-5H-pyrazino[1,2-a][1,8]naphthyridin-3-yl)propanenitrile]",Ki,[5],251 nM
same,Ki,[2]; [7],1260 nM
"CCc1c(CC2CCCCC2)cnc2c1CC[C@@H]1CNCCN21 [Compound 164, (R)-3-(cyclohexylmethyl)-4-ethyl-6,6a,7,8,9,10-hexahydro-5H-pyrazino[1,2-a][1,8]naphthyridine]",Ki,[1]; read-out: DOI Binding 5HT2C,233 nM
same,Ki,[2]; [7],703 nM
"CCc1c(CC2CCCCO2)cnc2c1CC[C@@H]1CNCCN21 (stereo partly drawn) [Compound 165, (6aR)-4-ethyl-3-((tetrahydro-2H-pyran-2-yl)methyl)-6,6a,7,8,9,10-hexahydro-5H-pyrazino[1,2-a][1,8]naphthyridine]",Ki,[1]; read-out: DOI Binding 5HT2C,570 nM
same,Ki,[2]; [7],890 nM
"CN1CCN2c3nccc(CCC(F)(F)F)c3CC[C@@H]2C1 [Compound 168, (R)-8-methyl-4-(3,3,3-trifluoropropyl)-6,6a,7,8,9,10-hexahydro-5H-pyrazino[1,2-a][1,8]naphthyridine]",Ki,[5],331 nM
same,Ki,[2]; [7],58 nM
"c1cc(CC2CCCC2)c2c(n1)N1CCNC[C@H]1CC2 [Compound 170, (R)-4-(cyclopentylmethyl)-6,6a,7,8,9,10-hexahydro-5H-pyrazino[1,2-a][1,8]naphthyridine]",Ki,[1],0.79 nM
"Brc1cncc2c1CC[C@@H]1CNCCN21 [Compound 172, (R)-4-bromo-6,6a,7,8,9,10-hexahydro-5H-pyrazino[1,2-a][1,7]naphthyridine]",Ki,[5],13 nM
same,Ki,[2]; [7],72.3 nM
"c1ncc2c(c1CC1CCCCC1)CC[C@@H]1CNCCN21 [Compound 174, (R)-4-(cyclohexylmethyl)-6,6a,7,8,9,10-hexahydro-5H-pyrazino[1,2-a][1,7]naphthyridine]",Ki,[5],140 nM
same,Ki,[2]; [7],107 nM
"c1ccc(Cc2cncc3c2CC[C@@H]2CNCCN32)cc1 [Compound 175, (R)-4-benzyl-6,6a,7,8,9,10-hexahydro-5H-pyrazino[1,2-a][1,7]naphthyridine]",Ki,[1],0.52 nM
same,Ki,[5],270 nM
same,EC50,[3],0.622 nM
same,EC50,[6],19900 nM
